Values joined by “and” are separate entries in the source; they are usually repeats but may differ in a detail not shown here. Equal values may be shown once. ± gives the uncertainty stated by the source.
Experiment: xn = mol fraction of the nth substance listed

CC(CC(C)(C)C)CC(C)(C)C + Cc1ccc(C)c(C)c1
viscosity [mPa·s], 102 kPa
Settings	x2 = 0.0923	x2 = 0.2008	x2 = 0.3004	x2 = 0.4003	x2 = 0.4979	x2 = 0.5999	x2 = 0.7003	x2 = 0.7999	x2 = 0.8992
293.15 K	1.24 ± 0.02	1.16 ± 0.02	1.09 ± 0.02	1.03 ± 0.02	0.975 ± 0.022	0.93 ± 0.022	0.891 ± 0.021	0.864 ± 0.021	0.848 ± 0.022
303.15 K	1.05 ± 0.02	0.981 ± 0.021	0.926 ± 0.021	0.882 ± 0.021	0.845 ± 0.021	0.808 ± 0.021	0.776 ± 0.021	0.75 ± 0.021	0.736 ± 0.021
313.15 K	0.906 ± 0.021	0.855 ± 0.021	0.813 ± 0.021	0.774 ± 0.021	0.739 ± 0.021	0.709 ± 0.021	0.679 ± 0.021	0.657 ± 0.021	0.647 ± 0.021
323.15 K	0.789 ± 0.021	0.749 ± 0.021	0.716 ± 0.021	0.683 ± 0.021	0.652 ± 0.021	0.625 ± 0.021	0.602 ± 0.021	0.582 ± 0.021	0.573 ± 0.021

CN(C)c1ccccc1 + Cc1ccccc1
viscosity [mPa·s], 101 kPa
Settings	x1 = 0.1011	x1 = 0.1961	x1 = 0.3125	x1 = 0.4011	x1 = 0.493	x1 = 0.5974	x1 = 0.701	x1 = 0.8015	x1 = 0.8983
298.15 K	0.597 ± 0.011	0.653 ± 0.012	0.711 ± 0.012	0.767 ± 0.013	0.831 ± 0.014	0.906 ± 0.015	0.989 ± 0.017	1.066 ± 0.018	1.173 ± 0.019
303.15 K	0.561 ± 0.01	0.604 ± 0.011	0.668 ± 0.012	0.714 ± 0.012	0.77 ± 0.013	0.834 ± 0.014	0.911 ± 0.015	0.988 ± 0.017	1.07 ± 0.018
308.15 K	0.532 ± 0.01	0.57 ± 0.01	0.625 ± 0.011	0.671 ± 0.012	0.726 ± 0.013	0.782 ± 0.013	0.854 ± 0.015	0.918 ± 0.015	0.999 ± 0.017
313.15 K	0.499 ± 0.009	0.536 ± 0.01	0.586 ± 0.011	0.619 ± 0.011	0.664 ± 0.012	0.726 ± 0.013	0.78 ± 0.013	0.851 ± 0.015	0.914 ± 0.015

[2H]O[2H] + Cc1cccnc1
viscosity [mPa·s], 101 kPa
Settings	x2 = 0.0233	x2 = 0.05084	x2 = 0.08428	x2 = 0.1255
297.15 K	1.471 ± 0.042	1.954 ± 0.051	2.315 ± 0.062	2.706 ± 0.072
298.15 K	1.433 ± 0.038	1.899 ± 0.051	2.249 ± 0.06	2.627 ± 0.07
299.15 K	1.389 ± 0.037	1.846 ± 0.049	2.189 ± 0.058	2.558 ± 0.068
300.15 K	1.355 ± 0.036	1.794 ± 0.048	2.122 ± 0.057	2.483 ± 0.067
301.15 K	1.32 ± 0.035	1.751 ± 0.047	2.059 ± 0.055	2.401 ± 0.064
302.15 K	1.284 ± 0.034	1.7 ± 0.045	1.999 ± 0.053	2.33 ± 0.062
303.15 K	1.254 ± 0.033	1.656 ± 0.044	1.949 ± 0.052	2.267 ± 0.061
304.15 K	1.225 ± 0.033	1.615 ± 0.043	1.893 ± 0.051	2.2 ± 0.059
305.15 K	1.191 ± 0.032	1.578 ± 0.042	1.843 ± 0.049	2.14 ± 0.057
306.15 K	1.165 ± 0.031	1.538 ± 0.041	1.793 ± 0.048	2.083 ± 0.055
307.15 K	1.136 ± 0.03	1.502 ± 0.04	1.751 ± 0.046	2.033 ± 0.054
308.15 K	1.104 ± 0.029	1.467 ± 0.039	1.708 ± 0.045	1.981 ± 0.053
309.15 K	1.082 ± 0.029	1.434 ± 0.038	1.665 ± 0.044	1.932 ± 0.051
310.15 K	1.055 ± 0.028	1.404 ± 0.037	1.631 ± 0.043	1.889 ± 0.05
311.15 K	1.034 ± 0.028	1.371 ± 0.036	1.589 ± 0.042	1.841 ± 0.049
312.15 K	1.007 ± 0.027	1.344 ± 0.036	1.555 ± 0.041	1.804 ± 0.048
313.15 K	0.984 ± 0.026	1.32 ± 0.037	1.522 ± 0.04	1.765 ± 0.047

C=CC#N + ClC(Cl)(Cl)Cl
viscosity [mPa·s], 101 kPa
Settings	293.15 K	298.15 K	303.15 K	313.15 K	323.15 K
x1 = 0.007	0.988 ± 0.026	0.911 ± 0.024	0.847 ± 0.022	0.749 ± 0.02	0.671 ± 0.018
x1 = 0.028	0.979 ± 0.026	0.903 ± 0.024	0.841 ± 0.022	0.772 ± 0.02	0.695 ± 0.018
x1 = 0.126	0.853 ± 0.022	0.783 ± 0.02	0.721 ± 0.019	0.661 ± 0.017	0.616 ± 0.016

C[N+](CCO)(CCO)CCO.[Cl-] + NC(N)=O
100 kPa, x1 = 0.5
Settings	viscosity [mPa·s]
293.15 K	6026 ± 390
298.15 K	3662 ± 210
303.15 K	2352 ± 120
308.15 K	1540 ± 73
313.15 K	1026 ± 44
318.15 K	717 ± 28
323.15 K	505 ± 18

CC(=O)[O-].CCCC[NH3+] + O
Settings	viscosity [mPa·s]
293.15 K, 101 kPa, x1 = 0.4013	53.35 ± 1.1

CC(C)[C@H](N)C(=O)O + O
101 kPa
Settings	viscosity
293.15 K, x1 = 0.005375	1.137 ± 0.024 mPa·s
293.15 K, x1 = 0.007154	1.185 ± 0.025 mPa·s
293.15 K, x1 = 0.008925	1.236 ± 0.026 mPa·s
298.15 K, x1 = 0.0001	0.9194 ± 0.043 mPa·s and 0.9194 ± 0.031 mPa·s
298.15 K, x1 = 0.0004318	0.9217 ± 0.043 mPa·s and 0.9217 ± 0.031 mPa·s
298.15 K, x1 = 0.00045	0.8955 ± 0.021 mPa·s
298.15 K, x1 = 0.0006308	0.9343 ± 0.044 mPa·s and 0.9343 ± 0.031 mPa·s
298.15 K, x1 = 0.0009	0.9038 ± 0.021 mPa·s
298.15 K, x1 = 0.001048	0.9493 ± 0.045 mPa·s and 0.9493 ± 0.031 mPa·s
298.15 K, x1 = 0.00135	0.9129 ± 0.021 mPa·s
298.15 K, x1 = 0.001416	0.9595 ± 0.045 mPa·s and 0.9595 ± 0.031 mPa·s
298.15 K, x1 = 0.001787	0.9689 ± 0.046 mPa·s and 0.9689 ± 0.031 mPa·s
298.15 K, x1 = 0.0018	0.9222 ± 0.021 mPa·s
298.15 K, x1 = 0.002245	0.9318 ± 0.021 mPa·s
298.15 K, x1 = 0.002695	0.9413 ± 0.022 mPa·s
298.15 K, x1 = 0.003711	0.9967 ± 0.047 mPa·s and 0.9967 ± 0.031 mPa·s
298.15 K, x1 = 0.005362	1.026 ± 0.048 mPa·s and 1.026 ± 0.031 mPa·s
298.15 K, x1 = 0.007185	1.05 ± 0.049 mPa·s and 1.05 ± 0.031 mPa·s
303.15 K, x1 = 0.0004	0.803 ± 0.007 mPa·s
303.15 K, x1 = 0.00045	0.8023 ± 0.018 mPa·s
303.15 K, x1 = 0.0007	0.808 ± 0.007 mPa·s
303.15 K, x1 = 0.0009	0.8101 ± 0.019 mPa·s
303.15 K, x1 = 0.001	0.814 ± 0.007 mPa·s and 0.821 ± 0.007 mPa·s
303.15 K, x1 = 0.00135	0.8187 ± 0.019 mPa·s
303.15 K, x1 = 0.0018	0.8274 ± 0.019 mPa·s
303.15 K, x1 = 0.002245	0.8364 ± 0.019 mPa·s
303.15 K, x1 = 0.002695	0.8456 ± 0.019 mPa·s
303.15 K, x1 = 0.003592	0.861 ± 0.018 mPa·s
303.15 K, x1 = 0.005375	0.8951 ± 0.019 mPa·s
303.15 K, x1 = 0.007154	0.9297 ± 0.02 mPa·s
303.15 K, x1 = 0.008925	0.9658 ± 0.02 mPa·s
308.15 K, x1 = 0.0001	0.7889 ± 0.037 mPa·s and 0.7889 ± 0.031 mPa·s
308.15 K, x1 = 0.0004318	0.7978 ± 0.038 mPa·s and 0.7978 ± 0.031 mPa·s
308.15 K, x1 = 0.00045	0.7239 ± 0.017 mPa·s
308.15 K, x1 = 0.0006308	0.8045 ± 0.038 mPa·s and 0.8045 ± 0.031 mPa·s
308.15 K, x1 = 0.001048	0.8147 ± 0.038 mPa·s and 0.8147 ± 0.031 mPa·s
308.15 K, x1 = 0.00135	0.7396 ± 0.017 mPa·s
308.15 K, x1 = 0.001416	0.8249 ± 0.039 mPa·s and 0.8249 ± 0.031 mPa·s
308.15 K, x1 = 0.001787	0.8389 ± 0.04 mPa·s and 0.8389 ± 0.031 mPa·s
308.15 K, x1 = 0.0018	0.7478 ± 0.017 mPa·s
308.15 K, x1 = 0.002245	0.7561 ± 0.017 mPa·s
308.15 K, x1 = 0.002695	0.7648 ± 0.017 mPa·s
308.15 K, x1 = 0.003711	0.8751 ± 0.041 mPa·s and 0.8751 ± 0.031 mPa·s
308.15 K, x1 = 0.005362	0.9003 ± 0.043 mPa·s and 0.9003 ± 0.031 mPa·s
308.15 K, x1 = 0.007185	0.9207 ± 0.043 mPa·s and 0.9207 ± 0.031 mPa·s
313.15 K, x1 = 0.00045	0.6573 ± 0.015 mPa·s
313.15 K, x1 = 0.0009	0.6645 ± 0.015 mPa·s
313.15 K, x1 = 0.00135	0.6722 ± 0.015 mPa·s
313.15 K, x1 = 0.0018	0.6799 ± 0.016 mPa·s
313.15 K, x1 = 0.001804	0.6773 ± 0.014 mPa·s
313.15 K, x1 = 0.002245	0.6878 ± 0.016 mPa·s
313.15 K, x1 = 0.002695	0.696 ± 0.016 mPa·s
313.15 K, x1 = 0.003592	0.7008 ± 0.015 mPa·s
313.15 K, x1 = 0.005375	0.7269 ± 0.015 mPa·s
313.15 K, x1 = 0.007154	0.752 ± 0.016 mPa·s
318.15 K, x1 = 0.0001	0.6823 ± 0.032 mPa·s and 0.6823 ± 0.031 mPa·s
318.15 K, x1 = 0.0004318	0.6985 ± 0.033 mPa·s and 0.6985 ± 0.031 mPa·s
318.15 K, x1 = 0.00045	0.6017 ± 0.014 mPa·s
318.15 K, x1 = 0.0006308	0.7009 ± 0.033 mPa·s and 0.7009 ± 0.031 mPa·s
318.15 K, x1 = 0.001048	0.7128 ± 0.034 mPa·s and 0.7128 ± 0.031 mPa·s
318.15 K, x1 = 0.00135	0.6159 ± 0.014 mPa·s
318.15 K, x1 = 0.001416	0.7308 ± 0.035 mPa·s and 0.7308 ± 0.031 mPa·s
318.15 K, x1 = 0.001787	0.7418 ± 0.035 mPa·s and 0.7418 ± 0.031 mPa·s
318.15 K, x1 = 0.0018	0.6233 ± 0.014 mPa·s
318.15 K, x1 = 0.002245	0.631 ± 0.015 mPa·s
318.15 K, x1 = 0.002695	0.6386 ± 0.015 mPa·s
318.15 K, x1 = 0.003711	0.7743 ± 0.037 mPa·s and 0.7743 ± 0.031 mPa·s
318.15 K, x1 = 0.005362	0.7995 ± 0.038 mPa·s and 0.7995 ± 0.031 mPa·s
318.15 K, x1 = 0.007185	0.8105 ± 0.038 mPa·s and 0.8105 ± 0.031 mPa·s
323.15 K, x1 = 0.001804	0.5656 ± 0.012 mPa·s
323.15 K, x1 = 0.003592	0.5841 ± 0.012 mPa·s
323.15 K, x1 = 0.008925	0.6454 ± 0.014 mPa·s
